The term pIC50 denotes −log10 of the IC50, conventionally taken in molar units. In general, inhibition refers to the drop in the measured response relative to a control, in per cent. By IC50 is commonly meant the concentration at which inhibition is half-maximal.

The source of these data is ChEMBL document CHEMBL5260813, “An overview on the recent developments of 1,2,4-triazine derivatives as anticancer compounds” (Eur J Med Chem, 2017).

Data set [1] has as its system KB. In words: Antiproliferative activity against human KB cells assessed as inhibition of cell growth under hypoxia condition. It is filed as functional, cell-based.
In data set [2] the test system is K562. As to the kind of experiment: Induction of apoptosis in human K562 cells assessed as increase in apoptotic cells under normoxia condition relative to control. The data set is classed as functional.
Data set [3] concerns K562. In words: Induction of apoptosis in human K562 cells assessed as increase in apoptotic cells under hypoxia condition relative to control. The data set is classed as functional.
For data set [4], the system named is MCF7. As to the kind of experiment: Antiproliferative activity against human MCF7 cells assessed as inhibition of cell growth at 100 uM relative to control. The data set is classed as functional.
Data set [5] deals with SF-268. In words: Antiproliferative activity against human SF-268 cells assessed as inhibition of cell growth at 100 uM relative to control. It is filed as functional.
The target of data set [6] is Cyclin-dependent kinase 2/cyclin E1 (Homo sapiens, UniProt P24941). In words: Inhibition of CDK2/cyclin E1 (unknown origin) expressed in Sf9 cells.
Data set [7] can be described thus: Cytotoxicity against human CEM cells assessed as inhibition of cell growth incubated for 72 hrs by MTT assay. It is filed as toxicity, cell-based. The settings on record: CEM (CCRF-CEM) cells, pooled result: one value given for 5 cell lines, strains, targets or settings. For orientation: Formazan colour is commonly taken as a measure of viable cells.
The test system of data set [8] is MCF7. As to the kind of experiment: Cytotoxicity against human MCF7 cells assessed as inhibition of cell growth incubated for 72 hrs by MTT assay. It is filed as functional, cell-based. Particulars: MCF7, 72 h.
Data set [9] addresses Epidermal growth factor receptor (Homo sapiens, UniProt P00533). In words: Inhibition of EGFR (unknown origin).
The target of data set [10] is Vascular endothelial growth factor receptor 2 (Homo sapiens, UniProt P35968). As to the kind of experiment: Inhibition of VEGFR-2 (unknown origin).
Chain of Vascular endothelial growth factor receptor 2 (P35968 whole entry): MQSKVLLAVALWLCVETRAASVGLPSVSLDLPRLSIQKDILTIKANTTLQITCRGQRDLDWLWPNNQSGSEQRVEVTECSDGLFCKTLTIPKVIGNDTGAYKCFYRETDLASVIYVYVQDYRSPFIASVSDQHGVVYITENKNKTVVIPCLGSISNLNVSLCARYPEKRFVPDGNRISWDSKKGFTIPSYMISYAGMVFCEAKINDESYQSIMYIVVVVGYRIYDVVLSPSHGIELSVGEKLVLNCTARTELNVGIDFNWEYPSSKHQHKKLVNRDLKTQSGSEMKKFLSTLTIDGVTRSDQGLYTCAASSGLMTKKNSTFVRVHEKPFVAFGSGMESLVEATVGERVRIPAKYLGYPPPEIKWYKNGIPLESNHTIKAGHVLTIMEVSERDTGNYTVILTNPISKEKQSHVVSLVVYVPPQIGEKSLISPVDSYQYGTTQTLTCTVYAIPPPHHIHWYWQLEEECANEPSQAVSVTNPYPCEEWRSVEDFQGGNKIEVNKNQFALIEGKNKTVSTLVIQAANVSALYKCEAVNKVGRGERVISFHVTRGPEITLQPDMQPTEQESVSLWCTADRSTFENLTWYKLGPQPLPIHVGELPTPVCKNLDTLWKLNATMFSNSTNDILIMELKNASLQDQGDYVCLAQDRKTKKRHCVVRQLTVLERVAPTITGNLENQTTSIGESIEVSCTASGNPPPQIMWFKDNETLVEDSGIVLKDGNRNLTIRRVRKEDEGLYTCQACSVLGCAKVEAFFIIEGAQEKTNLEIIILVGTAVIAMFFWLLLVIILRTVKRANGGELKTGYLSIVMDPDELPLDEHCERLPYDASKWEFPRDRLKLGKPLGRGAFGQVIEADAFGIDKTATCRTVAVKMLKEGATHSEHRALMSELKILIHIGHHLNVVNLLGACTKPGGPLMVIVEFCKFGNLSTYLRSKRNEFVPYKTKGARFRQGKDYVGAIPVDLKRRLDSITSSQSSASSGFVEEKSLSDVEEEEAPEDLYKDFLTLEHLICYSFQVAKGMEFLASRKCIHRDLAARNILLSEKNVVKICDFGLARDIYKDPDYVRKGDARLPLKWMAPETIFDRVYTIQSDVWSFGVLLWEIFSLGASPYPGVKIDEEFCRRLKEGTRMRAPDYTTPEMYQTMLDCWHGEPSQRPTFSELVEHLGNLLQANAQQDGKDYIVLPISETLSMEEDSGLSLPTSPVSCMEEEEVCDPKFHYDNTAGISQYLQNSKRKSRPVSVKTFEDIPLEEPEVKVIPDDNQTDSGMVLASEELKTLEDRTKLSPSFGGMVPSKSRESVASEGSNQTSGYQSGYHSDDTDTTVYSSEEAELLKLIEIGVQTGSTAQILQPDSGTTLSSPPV
A short description of data set [11]: Antiproliferative activity against human DiFi cells assessed as inhibition of cell growth by MTS assay.
Data set [12] addresses T1, Interleukin-1 receptor-associated kinase 4 (Homo sapiens, UniProt Q9NWZ3).
T1 sequence (Q9NWZ3 whole entry): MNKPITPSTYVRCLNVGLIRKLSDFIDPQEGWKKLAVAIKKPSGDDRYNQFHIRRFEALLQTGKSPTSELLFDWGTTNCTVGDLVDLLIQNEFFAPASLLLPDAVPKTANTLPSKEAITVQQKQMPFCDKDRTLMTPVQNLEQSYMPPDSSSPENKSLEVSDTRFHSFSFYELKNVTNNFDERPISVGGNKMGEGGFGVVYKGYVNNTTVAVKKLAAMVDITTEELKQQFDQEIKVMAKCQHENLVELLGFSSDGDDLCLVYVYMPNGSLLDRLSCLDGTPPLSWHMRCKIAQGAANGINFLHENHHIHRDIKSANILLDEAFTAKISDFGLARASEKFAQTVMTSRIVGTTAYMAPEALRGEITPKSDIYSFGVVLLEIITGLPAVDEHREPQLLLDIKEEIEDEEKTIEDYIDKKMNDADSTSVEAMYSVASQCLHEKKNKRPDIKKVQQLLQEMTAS
As to the kind of experiment: Inhibition of human GST-tagged IRAK4 incubated for 30 mins in presence of ATP by fluorescent polarization assay.

Data set [13] concerns HL-60. In words: Antiproliferative activity against human HL-60 cells assessed as inhibition of cell growth under normoxia condition incubated for 72 hrs by MTT assay. Particulars: HL-60, 72 h. It is filed as functional, cell-based.
Data set [14] deals with Bel-7402. As to the kind of experiment: Antiproliferative activity against human Bel-7402 cells assessed as inhibition of cell growth under normoxia condition incubated for 72 hrs by MTT assay. It is filed as functional, cell-based. Particulars: Bel-7402, 72 h.
The test system of data set [15] is ECa-109 cell line. As to the kind of experiment: Antiproliferative activity against human Eca-109 cells assessed as inhibition of cell growth under normoxia condition incubated for 72 hrs by MTT assay. Particulars: ECa-109, 72 h. The data set is classed as functional, cell-based.
In data set [16] the test system is PC-3. As to the kind of experiment: Antiproliferative activity against human PC-3 cells assessed as inhibition of cell growth under normoxia condition incubated for 72 hrs by MTT assay. It is filed as functional, cell-based. Particulars: PC-3, 72 h.
The subject of data set [17] is MCF7. In words: Antiproliferative activity against human MCF7 cells assessed as inhibition of cell growth under normoxia condition incubated for 72 hrs by MTT assay. Particulars: MCF7, 72 h. The data set is classed as functional, cell-based.
In data set [18] the test system is HL-60. In words: Antiproliferative activity against human HL-60 cells assessed as inhibition of cell growth under hypoxia condition incubated for 72 hrs by MTT assay. Particulars: HL-60, 72 h. The data set is classed as functional, cell-based.
Data set [19] has as its system Bel-7402. As to the kind of experiment: Antiproliferative activity against human Bel-7402 cells assessed as inhibition of cell growth under hypoxia condition incubated for 72 hrs by MTT assay. It is filed as functional, cell-based. The settings on record: Bel-7402, 72 h.
Data set [20] concerns ECa-109 cell line. As to the kind of experiment: Antiproliferative activity against human Eca-109 cells assessed as inhibition of cell growth under hypoxia condition incubated for 72 hrs by MTT assay. The data set is classed as functional, cell-based. The settings on record: ECa-109, 72 h.
Data set [21] deals with MCF7. As to the kind of experiment: Antiproliferative activity against human MCF7 cells assessed as inhibition of cell growth under hypoxia condition incubated for 72 hrs by MTT assay. It is filed as functional, cell-based. The settings on record: MCF7, 72 h.
The test system of data set [22] is PC-3. In words: Antiproliferative activity against human PC-3 cells assessed as inhibition of cell growth under hypoxia condition incubated for 72 hrs by MTT assay. Particulars: PC-3, 72 h. It is filed as functional, cell-based.
The nature of data set [23]: Ratio of IC50 for antiproliferative activity against human HL-60 cells assessed as inhibition of cell growth under normoxia condition to IC50 for antiproliferative activity against human HL-60 cells assessed as inhibition of cell growth under hypoxia condition. It is filed as functional.
Data set [24] can be described thus: Ratio of IC50 for antiproliferative activity against human Bel-7402 cells assessed as inhibition of cell growth under normoxia condition to IC50 for antiproliferative activity against human Bel-7402 cells assessed as inhibition of cell growth under hypoxia condition. It is filed as functional.
Data set [25] can be described thus: Ratio of IC50 for antiproliferative activity against human Eca-109 cells assessed as inhibition of cell growth under normoxia condition to IC50 for antiproliferative activity against human Eca-109 cells assessed as inhibition of cell growth under hypoxia condition. It is filed as functional.
Data set [26] can be described thus: Ratio of IC50 for antiproliferative activity against human MCF7 cells assessed as inhibition of cell growth under normoxia condition to IC50 for antiproliferative activity against human MCF7 cells assessed as inhibition of cell growth under hypoxia condition. It is filed as functional.
Data set [27] is described as follows: Ratio of IC50 for antiproliferative activity against human PC-3 cells assessed as inhibition of cell growth under normoxia condition to IC50 for antiproliferative activity against human PC-3 cells assessed as inhibition of cell growth under hypoxia condition. It is filed as functional.
In data set [28] the test system is MCF7. As to the kind of experiment: Antiproliferative activity against human MCF7 cells assessed as inhibition of cell growth by MTT assay. It is filed as functional, cell-based.
Data set [29] has as its system MDA-MB-231. In words: Antiproliferative activity against human MDA-MB-231 cells assessed as inhibition of cell growth by MTT assay. It is filed as functional, cell-based.
Data set [30] has as its system MCF7. In words: Antiproliferative activity against human MCF7 cells assessed as inhibition of cell growth by [3H]thymidine incorporation assay. The data set is classed as functional, cell-based.
Data set [31] has as its system MDA-MB-231. As to the kind of experiment: Antiproliferative activity against human MDA-MB-231 cells assessed as inhibition of cell growth by [3H]thymidine incorporation assay. It is filed as functional, cell-based.
In data set [32] the target is Glutaminase kidney isoform, mitochondrial (Homo sapiens, UniProt O94925). In words: Inhibition of GLS in human PC-3 cells using glutamine as substrate by amplex red staining-based horseradish peroxidase/glutamate oxidase coupled assay. It is filed as cell-based.
Chain of Glutaminase kidney isoform, mitochondrial (O94925 whole entry, canonical isoform): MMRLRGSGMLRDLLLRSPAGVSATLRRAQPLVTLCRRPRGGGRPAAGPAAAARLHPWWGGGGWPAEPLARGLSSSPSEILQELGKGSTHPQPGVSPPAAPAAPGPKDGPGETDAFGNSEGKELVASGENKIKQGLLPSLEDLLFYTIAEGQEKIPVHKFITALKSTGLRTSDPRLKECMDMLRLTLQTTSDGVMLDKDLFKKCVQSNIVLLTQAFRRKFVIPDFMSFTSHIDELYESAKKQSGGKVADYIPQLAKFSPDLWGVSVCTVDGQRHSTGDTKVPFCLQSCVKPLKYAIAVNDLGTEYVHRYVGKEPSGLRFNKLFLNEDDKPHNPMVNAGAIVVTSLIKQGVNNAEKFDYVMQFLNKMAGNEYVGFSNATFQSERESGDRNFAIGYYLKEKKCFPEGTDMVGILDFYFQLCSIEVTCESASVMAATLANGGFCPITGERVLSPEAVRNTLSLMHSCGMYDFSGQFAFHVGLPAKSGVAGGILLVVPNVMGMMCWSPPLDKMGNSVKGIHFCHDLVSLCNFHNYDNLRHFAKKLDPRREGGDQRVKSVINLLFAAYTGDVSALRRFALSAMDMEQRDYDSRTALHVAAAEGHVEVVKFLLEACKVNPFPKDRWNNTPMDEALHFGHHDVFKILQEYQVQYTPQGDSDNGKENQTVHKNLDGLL

pIC50: −log10 of the molar value.

Chain of Epidermal growth factor receptor (P00533 whole entry): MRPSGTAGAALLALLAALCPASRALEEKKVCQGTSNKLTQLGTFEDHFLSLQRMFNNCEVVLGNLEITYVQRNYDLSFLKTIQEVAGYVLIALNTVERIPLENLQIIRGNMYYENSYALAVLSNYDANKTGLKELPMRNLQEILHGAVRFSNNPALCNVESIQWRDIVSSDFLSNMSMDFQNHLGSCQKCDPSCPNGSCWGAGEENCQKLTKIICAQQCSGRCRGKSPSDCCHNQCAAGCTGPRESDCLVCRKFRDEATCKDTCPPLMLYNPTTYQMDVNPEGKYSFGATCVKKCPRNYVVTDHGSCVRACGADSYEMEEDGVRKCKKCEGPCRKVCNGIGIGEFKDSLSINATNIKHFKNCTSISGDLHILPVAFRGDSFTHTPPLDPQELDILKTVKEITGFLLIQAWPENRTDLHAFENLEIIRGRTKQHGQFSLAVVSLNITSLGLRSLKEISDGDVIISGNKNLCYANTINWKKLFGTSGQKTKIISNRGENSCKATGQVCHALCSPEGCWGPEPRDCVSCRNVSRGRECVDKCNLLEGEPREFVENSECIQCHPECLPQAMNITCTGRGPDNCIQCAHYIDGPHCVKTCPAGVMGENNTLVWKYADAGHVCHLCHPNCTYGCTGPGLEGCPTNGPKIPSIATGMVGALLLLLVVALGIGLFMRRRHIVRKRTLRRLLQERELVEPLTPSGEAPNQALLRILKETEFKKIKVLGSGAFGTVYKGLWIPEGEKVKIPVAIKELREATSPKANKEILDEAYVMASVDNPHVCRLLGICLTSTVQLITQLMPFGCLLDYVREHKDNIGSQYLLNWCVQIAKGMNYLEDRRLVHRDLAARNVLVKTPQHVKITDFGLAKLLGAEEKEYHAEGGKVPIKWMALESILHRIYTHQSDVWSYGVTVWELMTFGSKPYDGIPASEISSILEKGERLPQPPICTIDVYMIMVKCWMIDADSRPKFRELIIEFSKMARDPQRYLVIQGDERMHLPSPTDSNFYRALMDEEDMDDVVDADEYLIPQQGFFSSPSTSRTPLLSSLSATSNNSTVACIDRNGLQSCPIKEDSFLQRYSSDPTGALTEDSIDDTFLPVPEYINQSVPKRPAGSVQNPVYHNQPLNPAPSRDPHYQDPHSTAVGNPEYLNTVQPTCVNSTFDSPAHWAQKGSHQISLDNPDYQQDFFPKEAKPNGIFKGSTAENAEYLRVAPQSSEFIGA

With `[O-][n+]1nc(NCOCc2ccc(C(F)(F)F)cc2)[n+]([O-])c2ccccc21`, the negative logarithm of the IC50 (pIC50) in data set [1] was 5.37. In addition, the Activity in data set [2] is recorded as 14.95%; in [3], 54.24%.
With `CC(=O)OC[C@H]1O[C@@H](n2nc(Cc3ccccc3)c(=S)n(N)c2=S)[C@H](OC(C)=O)[C@@H](OC(C)=O)[C@H]1OC(C)=O`, the inhibition at 100 µM amounted to 15% in [4] and 38% in data set [5].
For the compound `Oc1cc(-c2nn(-c3cc(O)c(O)c(O)c3)c3nnc(-c4ccc(Cl)cc4)nc23)cc(O)c1O`, the pIC50 in data set [6] is 4.96; in data set [8], 6.11. The 50% inhibitory concentration (IC50) at 72 h in data set [7] stood at 770 nM.
For `Cc1cc2c(Nc3ccc(F)c(Cl)c3)ncnn2c1`, the negative-log IC50 (pIC50) in data set [9] was under 5.70; in data set [10], 6.82; in data set [11], 5.80.
With `Cn1cc(NC(=O)c2ccc3cnc(NC4CCCCC4N)nn23)c(C(N)=O)n1` (centres undefined), in data set [12], the pIC50 is 9.15.
As to `CCn1cc(NC(=O)c2ccc3cnc(NC4CCCCC4N)nn23)c(C(N)=O)n1` (centres undefined), the pIC50 in data set [12] was 9.00.
Turning to `Cc1ccn2ncnc(Nc3ccc(F)c(Cl)c3)c12`, the pIC50 is under 5.00 in data set [9], 7.00 in data set [10] and 5.80 in data set [11].
Turning to `[O-][n+]1nc(NC2CCCCC2)[n+]([O-])c2ccc(Cl)cc21`, the negative-log IC50 (pIC50) in data set [13], in [14], in data set [15], in data set [16], in data set [17] and in data set [18] was 6.70 in each case. The negative logarithm of the IC50 (pIC50) in data set [19], in data set [20], in data set [21] and in [22] was 6.70 each time. In addition, the “Ratio IC50” value was determined as 6.4 in data set [23]; 1 in data set [24]; 2.9 in data set [25]; 2.7 in data set [26]; 2 in data set [27].
Consider `c1ccc(-c2nnc(SSc3nnc(-c4ccccc4)c(-c4ccccc4)n3)nc2-c2ccccc2)cc1`, for which the negative-log IC50 (pIC50) is 4.60 in [28], 4.60 in data set [29], 4.46 in [30] and 4.41 in data set [31].
Consider `[O-][n+]1nc(Nc2ccccc2)[n+]([O-])c2ccc(Cl)cc21`, for which the negative logarithm of the IC50 (pIC50) in [13], in data set [14], in data set [15], in data set [16], in [17] and in data set [18] was 6.70 throughout. The pIC50 in [19], in [20], in [21] and in [22] was 6.70 each time. For the same compound, the “Ratio IC50” value is listed as 6.9 in data set [23], 2.8 in data set [25], 3 in [26] and 1.3 in [27].
In turn, `COC(C(=O)Cc1cnc(NC2CCN(c3cncnn3)C2)s1)c1cccc(OC(F)(F)F)c1` (centres undefined) showed a pIC50 in data set [32] of 7.37.
`c1ccc(-c2cc(SN3CCCC3)nnc2-c2ccccc2)cc1`: the negative logarithm of the IC50 (pIC50) in data set [28] was 4.52; in data set [29] it was 4.60; in [30] it was 4.82; in data set [31] it was 4.40.
